Experimental data published in patent publication US11779661B2, “Theranostic nucleic acid binding fluorescent nanoprobes and uses thereof” (The General Hospital Corporation, priority 2016, dated 2023).

Test system: Bacterial Phage Lambda DNA
Assay: In vitro nucleic acid binding fluorescence assay, Lambda DNA
Conditions: equivalent fluorochrome concentrations, FIG. 1F
Protocol: Bacterial Phage Lambda DNA (Sigma-Aldrich), CpG DNA (Enzo Life, Plymouth Meeting, Pa.), Torula yeast RNA (Sigma-Aldrich) were completely dissolved in Tris-acetate-EDTA (TAE) buffer (pH=8) by gentle inversion overnight at 4° C. Lambda DNA, CpG DNA, yeast RNA stock solutions were characterized by spectrophotometry to determine the concentration and purity. Total mouse heart RNA was extracted from C57Bl6 mouse hearts using TRI Reagent (Sigma-Aldrich) and characterized with a NanoDrop spectrophotometer (Thermo Fisher) as described in Feng Y, Chen H, et al., J Biol Chem. 2015; 290: 26688-98. […] Fluorescence was measured with the GloMax-Multi Detection System and snap-in fluorescent optical kits (Promega, Madison, Wis.). EC50 was determined using the dose-response curve fitting function implemented in Prism (GraphPad, La Jolla, Calif.).

Row | Fluorescence increase with DNA concentration | Molecule
1 | substantially less increase | CN1/C(=C/c2cc[n+](CCC[N+](C)(C)C)c3ccccc23)Sc2ccccc21 [TO-PRO 1]
2 | No fluorescence increase and none | Cy5.5
